Source: patent US11690854B2, “Methods of treating heavy menstrual bleeding” (priority 2018, dated 2023)

Experiments:
[1] = Drug interaction studies: co-administered drug pharmacokinetics in the presence of elagolix; conditions: for Effect of co-administration of ELAGOLIX on concentration of concomitant drug (direction of the change in AUC): established drug interactions
Protocol: (§1) Drug interaction studies were performed with ELAGOLIX and other drugs that are likely to be co-administered and with drugs commonly used as probes for pharmacokinetic interactions.

[2] = for Drugs with no observed clinically significant interactions with ELAGOLIX: co-administration with ELAGOLIX
Protocol: as §1

[3] = Ethinyl estradiol 35 mcg and triphasic norgestimate 0.18/0.215/0.25 mg once daily, elagolix 150 ms once daily, N 21

C[C@H]1O[C@@H](O[C@H]2[C@@H](O)C[C@H](O[C@H]3[C@@H](O)C[C@H](O[C@H]4CC[C@@]5(C)[C@H](CC[C@@H]6[C@@H]5C[C@@H](O)[C@]5(C)[C@@H](C7=CC(=O)OC7)CC[C@]65O)C4)O[C@@H]3C)O[C@@H]2C)C[C@H](O)[C@@H]1O [Digoxin]
Ratio of co-administered drug AUC, with elagolix vs medication alone ([1]; Digoxin 0.5 mg single dose, elagolix 200 ms twice daily × 10 days, N 11, 90% CI 1.17-1.35): 1.26
Ratio of co-administered drug Cmax, with elagolix vs medication alone ([1]; Digoxin 0.5 mg single dose, elagolix 200 ms twice daily × 10 days, N 11, 90% CI 1.53-1.91): 1.71
Effect of co-administration of ELAGOLIX on concentration of concomitant drug (direction of the change in AUC) [1]: ↑ digoxin

CO[C@H]1/C=C/O[C@@]2(C)Oc3c(C)c(O)c4c(O)c(c(/C=N/N5CCN(C)CC5)c(O)c4c3C2=O)NC(=O)/C(C)=C\C=C\[C@H](C)[C@H](O)[C@@H](C)[C@@H](O)[C@@H](C)[C@H](OC(C)=O)[C@@H]1C [Rifampin]
Effect of concomitant drug on elagolix (direction of the change in AUC) ([2]; established drug interactions): ↑ elagolix

Cc1ncc2n1-c1ccc(Cl)cc1C(c1ccccc1F)=NC2 [Midazolam]
Ratio of co-administered drug AUC, with elagolix vs medication alone ([1]; Midazolam 2 mg single dose, elagolix 300 mg twice daily × 11 days, N 20, 90% CI 0.41-0.50): 0.46
Ratio of co-administered drug Cmax, with elagolix vs medication alone ([1]; Midazolam 2 mg single dose, elagolix 300 mg twice daily × 11 days, N 20, 90% CI 0.51-0 62): 0.56
Ratio of co-administered drug AUC, with elagolix vs medication alone ([1]; Midazolam 2 mg single dose, elagolix 150 ms once daily × 13 days, N 11, 90% CI 0.58-0.72): 0.65
Ratio of co-administered drug Cmax, with elagolix vs medication alone ([1]; Midazolam 2 mg single dose, elagolix 150 ms once daily × 13 days, N 11, 90% CI 0.74-0.89): 0.81
Effect of co-administration of ELAGOLIX on concentration of concomitant drug (direction of the change in AUC) [1]: ↓ midazolam

C#C[C@]1(O)CC[C@H]2[C@@H]3CCC4=CC(=NO)CC[C@@H]4[C@H]3CC[C@@]21CC (mixture of isomers) [Norelgestromin]
Ratio of co-administered drug AUC, with elagolix vs medication alone [1, 3]: 0.85
Ratio of co-administered drug Cmax, with elagolix vs medication alone [1, 3]: 0.87

CC(C)c1nc(N(C)S(C)(=O)=O)nc(-c2ccc(F)cc2)c1/C=C/[C@@H](O)C[C@@H](O)CC(=O)O [Rosuvastatin]
Ratio of co-administered drug AUC, with elagolix vs medication alone ([1]; Rosuvastatin 20 mg once daily, elagolix 300 mg twice daily × 7 days, N 10, 90% CI 0.50-0.71): 0.60
Ratio of co-administered drug Cmax, with elagolix vs medication alone ([1]; Rosuvastatin 20 mg once daily, elagolix 300 mg twice daily × 7 days, N 10, 90% CI 0.73-1.35): 0.99
Effect of co-administration of ELAGOLIX on concentration of concomitant drug (direction of the change in AUC) [1]: ↓ rosuvastatin

C#CC1(O)CC[C@H]2[C@@H]3CCC4=CC(=O)CC[C@@H]4[C@H]3CC[C@@]21CC (mixture of isomers) [Norgestrel]
Ratio of co-administered drug AUC, with elagolix vs medication alone [1, 3]: 0.92
Ratio of co-administered drug Cmax, with elagolix vs medication alone [1, 3]: 0.89

CN[C@H]1CC[C@@H](c2ccc(Cl)c(Cl)c2)c2ccccc21 [sertraline]
Drugs with no observed clinically significant interactions with ELAGOLIX [2]: No dose adjustment is required

C#C[C@]1(O)CC[C@H]2[C@@H]3CCc4cc(O)ccc4[C@H]3CC[C@@]21C [Ethinyl Estradiol]
Ratio of co-administered drug AUC, with elagolix vs medication alone [1, 3]: 1.30
Ratio of co-administered drug Cmax, with elagolix vs medication alone [1, 3]: 1.15

CC(=O)N1CCN(c2ccc(OCC3COC(Cn4ccnc4)(c4ccc(Cl)cc4Cl)O3)cc2)CC1 (centres unmarked) [Ketoconazole]
Drugs with no observed clinically significant interactions with ELAGOLIX [2]: No dose adjustment is required
